Measured values reported in US20140107226A1, “METHODS FOR ENHANCING STABILITY OF POLYORTHOESTERS AND THEIR FORMULATIONS” (A.P. PHARMA, INC., priority 2008, published 2014).

Experiment: Granisetron in human plasma after APF530 (clinical pharmacokinetics)
Assay type: in vivo
Settings: chemo-patients, human trials (FIGS. 3 and 4)

CN1C2CCCC1CC(NC(=O)c1nn(C)c3ccccc13)C2 (stereo not shown) [granisetron]
clearance of granisetron: impaired clearance
